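Method: 48-hour compound exposure of cells in 96-well plates, five concentrations, linear interpolation of endpoints. The concentration for full growth arrest is given as TGI.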
Key:
Assay in all cases: growth of human tumour cells (NCI), 48 h
786-0 renal = system: 786-0 renal
A498 renal = system: A498 renal
A549 NSCLC = system: A549 NSCLC
ACHN renal = system: ACHN renal
BT-549 breast = system: BT-549 breast
CAKI-1 renal = system: CAKI-1 renal
CCRF-CEM leukemia = system: CCRF-CEM leukemia
COLO 205 colon = system: COLO 205 colon
DU-145 prostate = system: DU-145 prostate
EKVX NSCLC = system: EKVX NSCLC
HCC-2998 colon = system: HCC-2998 colon
HCT-116 colon = system: HCT-116 colon
HCT-15 colon = system: HCT-15 colon
HL-60(TB) leukemia = system: HL-60(TB) leukemia
HOP-62 NSCLC = system: HOP-62 NSCLC
HOP-92 NSCLC = system: HOP-92 NSCLC
HS 578T breast = system: HS 578T breast
HT29 colon = system: HT29 colon
IGROV1 ovarian = system: IGROV1 ovarian
K-562 leukemia = system: K-562 leukemia
KM12 colon = system: KM12 colon
LOX IMVI melanoma = system: LOX IMVI melanoma
M14 melanoma = system: M14 melanoma
MALME-3M melanoma = system: MALME-3M melanoma
MCF7 breast = system: MCF7 breast
MDA-MB-231 breast = system: MDA-MB-231 breast
MDA-MB-435 = system: MDA-MB-435
MDA-N = system: MDA-N
MOLT-4 leukemia = system: MOLT-4 leukemia
NCI-H226 lung = system: NCI-H226 lung
NCI-H23 lung = system: NCI-H23 lung
NCI-H460 lung = system: NCI-H460 lung
NCI-H522 lung = system: NCI-H522 lung
OVCAR-3 ovarian = system: OVCAR-3 ovarian
OVCAR-4 ovarian = system: OVCAR-4 ovarian
OVCAR-5 ovarian = system: OVCAR-5 ovarian
OVCAR-8 ovarian = system: OVCAR-8 ovarian
PC-3 prostate = system: PC-3 prostate
RPMI-8226 leukemia = system: RPMI-8226 leukemia
RXF 393 renal = system: RXF 393 renal
SF-268 CNS = system: SF-268 CNS
SF-295 CNS = system: SF-295 CNS
SF-539 CNS = system: SF-539 CNS
SK-MEL-2 melanoma = system: SK-MEL-2 melanoma
SK-MEL-28 melanoma = system: SK-MEL-28 melanoma
SK-MEL-5 melanoma = system: SK-MEL-5 melanoma
SK-OV-3 ovarian = system: SK-OV-3 ovarian
SN12C renal = system: SN12C renal
SNB-19 CNS = system: SNB-19 CNS
SNB-75 CNS = system: SNB-75 CNS
SR leukemia = system: SR leukemia
SW-620 colon = system: SW-620 colon
T-47D breast = system: T-47D breast
TK-10 renal = system: TK-10 renal
U251 CNS = system: U251 CNS
UACC-257 melanoma = system: UACC-257 melanoma
UACC-62 melanoma = system: UACC-62 melanoma
UO-31 renal = system: UO-31 renal

`C=C1C(=O)OC2/C=C(/CO)C3(O)CC(O)C(C)(CC(OC(=O)/C(C)=C/C)C12)O3` (stereo not given) showed a TGI (786-0 renal) of 52.3 µM, a TGI (A498 renal) of 50.2 µM and a TGI (A549 NSCLC) of over 74.6 µM. It also gave a TGI (ACHN renal) of 25 µM, a TGI (BT-549 breast) of 18.3 µM and a TGI (CAKI-1 renal) of 11.6 µM. For the same molecule, the TGI (CCRF-CEM leukemia) was over 24.6 µM, the TGI (COLO 205 colon) was 14.7 µM and the TGI (DU-145 prostate) was 41.4 µM. The TGI (EKVX NSCLC) was 48.5 µM, the TGI (HCC-2998 colon) was 29 µM and the TGI (HCT-116 colon) was over 44.7 µM. The TGI (HCT-15 colon) was 31.6 µM, the TGI (HL-60(TB) leukemia) was over 23 µM and the TGI (HOP-62 NSCLC) was over 100 µM. It also gave a TGI (HOP-92 NSCLC) of 30.6 µM, a TGI (HS 578T breast) of over 100 µM and a TGI (HT29 colon) of 25 µM. For the same molecule, the TGI (IGROV1 ovarian) was 43.2 µM, the TGI (K-562 leukemia) was over 100 µM and the TGI (KM12 colon) was 42 µM. The TGI (LOX IMVI melanoma) was 25.9 µM, the TGI (M14 melanoma) was over 58.3 µM and the TGI (MALME-3M melanoma) was 29.8 µM. It also gave a TGI (MCF7 breast) of 23.9 µM, a TGI (MDA-MB-231 breast) of 34.6 µM and a TGI (MDA-MB-435) of over 57.1 µM. The TGI (MDA-N) was over 61 µM, the TGI (MOLT-4 leukemia) was 9.95 µM and the TGI (NCI-H226 lung) was 51.5 µM. It also gave a TGI (NCI-H23 lung) of 42.9 µM, a TGI (NCI-H460 lung) of 48.9 µM and a TGI (NCI-H522 lung) of 7.32 µM. For the same molecule, the TGI (OVCAR-3 ovarian) was over 67.8 µM, the TGI (OVCAR-4 ovarian) was over 62.9 µM and the TGI (OVCAR-5 ovarian) was 63.5 µM. The TGI (OVCAR-8 ovarian) was 45.2 µM, the TGI (PC-3 prostate) was 83.9 µM and the TGI (RPMI-8226 leukemia) was 7.5 µM. The TGI (RXF 393 renal) was 12.6 µM, the TGI (SF-268 CNS) was over 59.9 µM and the TGI (SF-295 CNS) was over 73 µM. The TGI (SF-539 CNS) was 61.4 µM, the TGI (SK-MEL-2 melanoma) was over 66.1 µM and the TGI (SK-MEL-28 melanoma) was 49.5 µM. For the same molecule, the TGI (SK-MEL-5 melanoma) was 54.6 µM, the TGI (SK-OV-3 ovarian) was over 61.7 µM and the TGI (SN12C renal) was 32.9 µM. For the same molecule, the TGI (SNB-19 CNS) was over 100 µM, the TGI (SNB-75 CNS) was over 100 µM and the TGI (SR leukemia) was over 26.1 µM. The TGI (SW-620 colon) was 22.3 µM, the TGI (T-47D breast) was 39.9 µM and the TGI (TK-10 renal) was 32.1 µM. For the same molecule, the TGI (U251 CNS) was 48.7 µM, the TGI (UACC-257 melanoma) was 39 µM and the TGI (UACC-62 melanoma) was 21 µM. The TGI (UO-31 renal) was over 67.2 µM.

In the case of `CC(C)c1ccc(/C=C2\N=C(c3ccc([N+](=O)[O-])cc3)OC2=O)cc1`, the TGI (786-0 renal) is reported as over 100 µM, the TGI (A498 renal) is reported as over 100 µM and the TGI (A549 NSCLC) is reported as over 100 µM. The TGI (ACHN renal) was over 100 µM, the TGI (BT-549 breast) was over 100 µM and the TGI (CAKI-1 renal) was over 100 µM. The TGI (CCRF-CEM leukemia) was over 100 µM, the TGI (COLO 205 colon) was over 100 µM and the TGI (DU-145 prostate) was over 100 µM. It also gave a TGI (EKVX NSCLC) of over 100 µM, a TGI (HCC-2998 colon) of over 100 µM and a TGI (HCT-116 colon) of over 100 µM. It also gave a TGI (HCT-15 colon) of over 100 µM, a TGI (HL-60(TB) leukemia) of over 100 µM and a TGI (HOP-62 NSCLC) of over 100 µM. It also gave a TGI (HOP-92 NSCLC) of over 100 µM, a TGI (HS 578T breast) of over 100 µM and a TGI (HT29 colon) of over 100 µM. The TGI (IGROV1 ovarian) was over 100 µM, the TGI (K-562 leukemia) was over 100 µM and the TGI (KM12 colon) was over 100 µM. For the same molecule, the TGI (LOX IMVI melanoma) was over 100 µM, the TGI (M14 melanoma) was over 100 µM and the TGI (MALME-3M melanoma) was over 100 µM. It also gave a TGI (MCF7 breast) of over 100 µM, a TGI (MDA-MB-231 breast) of over 100 µM and a TGI (MDA-MB-435) of over 100 µM. It also gave a TGI (MDA-N) of over 100 µM, a TGI (MOLT-4 leukemia) of over 100 µM and a TGI (NCI-H226 lung) of over 100 µM. For the same molecule, the TGI (NCI-H23 lung) was over 100 µM, the TGI (NCI-H460 lung) was over 100 µM and the TGI (NCI-H522 lung) was over 100 µM. It also gave a TGI (OVCAR-3 ovarian) of over 100 µM, a TGI (OVCAR-4 ovarian) of over 100 µM and a TGI (OVCAR-5 ovarian) of over 100 µM. It also gave a TGI (OVCAR-8 ovarian) of over 100 µM, a TGI (PC-3 prostate) of over 100 µM and a TGI (RPMI-8226 leukemia) of over 100 µM. It also gave a TGI (RXF 393 renal) of over 100 µM, a TGI (SF-268 CNS) of over 100 µM and a TGI (SF-295 CNS) of over 100 µM. It also gave a TGI (SF-539 CNS) of over 100 µM, a TGI (SK-MEL-2 melanoma) of over 100 µM and a TGI (SK-MEL-28 melanoma) of over 100 µM. It also gave a TGI (SK-MEL-5 melanoma) of over 100 µM, a TGI (SK-OV-3 ovarian) of over 100 µM and a TGI (SN12C renal) of over 100 µM. For the same molecule, the TGI (SNB-19 CNS) was over 100 µM, the TGI (SNB-75 CNS) was over 100 µM and the TGI (SR leukemia) was over 100 µM. For the same molecule, the TGI (SW-620 colon) was over 100 µM, the TGI (T-47D breast) was over 100 µM and the TGI (TK-10 renal) was over 100 µM. The TGI (U251 CNS) was over 100 µM, the TGI (UACC-257 melanoma) was over 100 µM and the TGI (UACC-62 melanoma) was over 100 µM.
